Test results taken from patent US20240285497A1, “METHOD FOR EVALUATING AN ABILITY OF A TEST SAMPLE TO TRIGGER A FOREIGN BODY REACTION IN THE SKIN, A METHOD FOR SCREENING A SUBSTANCE HAVING AN ABILITY TO INHIBIT A FOREIGN BODY REACTION IN THE SKIN, AND AN AGENT FOR INHIBITING A FOREIGN BODY REACTION IN THE SKIN” (priority 2021, published 2024).
Marks after values point to notes of the source that are not given here.

Tests used:
XRE-NLuc::HaCaT cells = assay: in vitro; details: read-out: LC50; XRE-NLuc::HaCaT cells, median lethal concentration
Experimental: (§1) After the above-described incubation for 24 hours, the number of cells in each well was counted by a colorimetric method based on the degradation of tetrazolium salt (WST-1) by mitochondrial dehydrogenase in viable cells. Specifically, 3 μL of Premix WST-1 (Product Name “Premix WST-1 Cell Proliferation Assay System”; Takara Bio Inc., Shiga, Japan; Catalogue No.: MK400) was added to each well of 96 well plates, and then the cells were cultured for 1 hour at 37° C., 5% CO2. Thereafter, 93 μL of cell culture supernatant was removed from each well to measure the absorbance of the supernatant in each well. The removed supernatants were transferred to transparent 96 well plates, and then the absorbance at 450 nm (A450) and, as a reference wavelength, the absorbance at 670 nm (A670) were measured using iMark microplate reader (Bio-Rad; Catalogue No.: 168-1130JA). A value (A450-A670) was obtained by subtracting the absorbance at 670 nm (A670) from the absorbance at 450 nm (A450). The relative viable cell count (%) was expressed as a relative value with the value (A450-A670) obtained for the negative control as 100%.
(§2) The ability of each test sample to trigger a foreign body reaction was evaluated using XRE-NLuc::HaCaT cells in the same manner as in Experiment 1-2, except that I3C (Indole-3-carbinol, CAS RN: 700-06-1), ITE (2-(1′H-indole-3′-carbonyl)-thiazole-4-carboxylic acid methyl ester, CAS RN: 448906-42-1), and Indirubin (CAS RN: 479-41-4) were used instead of FICZ as test samples and the amount of each test sample added to the DMEM medium was appropriately changed.

[1] = test system: xenobiotic responsive element (XRE); assay: Evaluation of ability to trigger a foreign body reaction using XRE-NLuc::HaCaT reporter cells (NLuc luminescence per viable cell); assay type: cell-based, human; details: XRE-NLuc::HaCaT cells; for EC50: reporter protein expression; for Present Experiment Maximum Effective concentration Max. Induction: concentration at which reporter expression was maximized
Experimental: First, XRE-NLuc::HaCaT cells were suspended in a DMEM medium at the density of 1×10^5 cell/mL, and 100 μL of the thus obtained suspension was added to each well of white 96 well plates (Thermo Fisher Scientific, MA, U.S.A.; Catalogue No.: 136102) so that the number of the cells in each well was 10,000 cells/well. In accordance with a conventional method, the cells were incubated at 37° C., 5% CO2 for 24 hours. Thereafter, the DMEM medium was removed, and 100 μL of a new DMEM medium containing FICZ (6-Formylindolo[3,2-b]carbazole; CAS RN: 172922-91-7) as a test sample at a predetermined concentration was added, followed by further incubation for 24 hours at 37° C., 5% CO2. FICZ is known as a substance that triggers a foreign body reaction in which XRE is involved. Meanwhile, negative controls were prepared by adding 100 μL of a DMEM medium containing no FICZ instead of the DMEM medium containing FICZ, which were also incubated for 24 hours at 37° C., 5% CO2.
as §1
Meanwhile, the expression level of the reporter protein was measured using samples left on the white 96-well plates after removing the supernatants for the viable cell count measurement. Briefly, 7 μL of Nano-Glo Luciferase Assay System (Promega; Catalogue No.: N110) was added to each well of the white 96-well plate. After 3 mins, the luminescence intensity obtained from the reporter protein produced by XRE-NLuc::HaCaT cells in each well was measured using GloMax Navigator Microplate Luminometer (Promega; Catalogue No.: GM2000). The obtained luminescence intensities were divided by the relative viable cell counts obtained by the above-described colorimetric method to obtain the expression level of the reporter protein (luminescence intensity) per unit number of viable cells.
In FIG. 3, the luminescence intensity per unit number of viable cells obtained from XRE-NLuc::HaCaT cells incubated with each of the DMEM medium containing FICZ at different concentrations was shown as a relative value, with the luminescence intensity per unit number of viable cells obtained for the negative control set to 1. […] In the figure, “*” and “**” indicate statistically significant differences (p<0.05 and p<0.01, respectively) from the negative control (“FICZ Concentration 0 nM” in FIG. 3).
as §2

[2] = test system: human liver cancer-derived cell line HepG2 cells; details: cited from earlier work
[3] = test system: matrix metalloprotease 2 (MMP2) mRNA; assay: MMP2 mRNA expression in HaCaT cells contacted with test substance, quantitative PCR; assay type: cell-based, human; details: retinoic acid or nicotinamide at predetermined concentrations, 24 hours
Experimental: In this experiment, the effect of Fraglide-1 on the expression of MMP9 in the level of mRNA was examined first. Specifically, HaCaT cells were treated with Fraglide-1 in the same manner as described in Experiment 3-1 except that HaCaT cells were incubated for 24 hours in the medium containing 0 μM, 1 μM, 10 μM, and 100 μM of Fraglide-1 instead of being incubated for 24 hours in the medium containing both FICZ and Fraglide-1. The total RNA was then extracted, cDNA was prepared, and the quantitative PCR was performed using the obtained cDNA. Herein, the procedure of the quantitative PCR was the same as described in Experiment 3-1 except that the primers shown in below Table 4 were used. In this experiment, the expression of MMP2 mRNA was also quantified in addition to MMP9 mRNA. MMP2 is known as a MMP which is not transcriptionally regulated by a xenobiotic responsive element (XRE). […]
Next, experiments were performed to inhibit MMP9 and MMP2 in HaCaT cells using retinoic acid (CAS RN: 302-79-4) and nicotinamide (CAS RN: 98-92-0), which are known to be substances having anti-wrinkle effect. […] Then, the total RNA was extracted, cDNA was prepared, and the quantitative PCR was carried out using the obtained cDNA. […]

[4] = test system: TIMP-1 (Tissue Inhibitor of Matrix Metalloprotease-1) mRNA; assay: TIMP-1 mRNA expression in HaCaT cells, quantitative PCR; assay type: cell-based, human; details: Fraglide-1 1 μM, 10 μM, 100 μM; retinoic acid / nicotinic acid amide at predetermined concentrations; 24 hours
Experimental: Specifically, the mRNA expression of TIMP-1 in the HaCaT cells treated with Fraglide-1 was evaluated by performing quantitative PCR using cDNA obtained in Experiment 4-1. The procedure of quantitative PCR was the same as described in Experiment 4-1 except that the primers shown in below Table 5 were used.
In FIG. 14, the results obtained for each sample were shown in relative values normalized by setting the expression level of TIMP-1 in the HaCaT cells incubated for 24 hours in DMEM medium not containing Fraglide-1 (i.e., the non-treated HaCaT cells) as 1. The results shown in FIG. 14 are the mean of values obtained from three independent experiments, and the error bars represent standard deviation (SD).
On the other hand, as comparison, the similar evaluation was performed for retinoic acid and nicotinamide, which are known as active ingredients of anti-wrinkle agents, using cDNA obtained in Experiment 4-2. The procedure for quantitative PCR was the same as already described in Experiment 3-1, except that the primers shown in Table 5 were used.
In FIG. 15, the results obtained for each sample were shown in relative values normalized by setting the expression level of TIMP-1 in the HaCaT cells incubated for 24 hours in DMEM medium not containing either retinoic acid and nicotinic acid amide (i.e., the non-treated HaCaT cells) as 1. The results shown in FIG. 15 are the mean of values obtained from three independent experiments, and the error bars represent standard deviation (SD).

[5] = test system: matrix metalloprotease 9 (MMP9) mRNA; assay: MMP9 mRNA expression in HaCaT cells contacted with test substance, quantitative PCR; assay type: cell-based, human; details: retinoic acid or nicotinamide at predetermined concentrations, 24 hours
Experimental: In this experiment, the effect of Fraglide-1 on the expression of MMP9 in the level of mRNA was examined first. Specifically, HaCaT cells were treated with Fraglide-1 in the same manner as described in Experiment 3-1 except that HaCaT cells were incubated for 24 hours in the medium containing 0 μM, 1 μM, 10 μM, and 100 μM of Fraglide-1 instead of being incubated for 24 hours in the medium containing both FICZ and Fraglide-1. The total RNA was then extracted, cDNA was prepared, and the quantitative PCR was performed using the obtained cDNA. Herein, the procedure of the quantitative PCR was the same as described in Experiment 3-1 except that the primers shown in below Table 4 were used. In this experiment, the expression of MMP2 mRNA was also quantified in addition to MMP9 mRNA. MMP2 is known as a MMP which is not transcriptionally regulated by a xenobiotic responsive element (XRE).
In FIG. 9 and FIG. 10, the results obtained for each sample were shown as a relative value, with the mRNA expression level of MMP9 or MMP2 in the HaCaT cells incubated for 24 hours in DMEM medium without […] (i.e., the non-treated HaCaT cells) set to 1. The results shown in FIG. 9 and FIG. 10 were the mean obtained from three independent experiments. The error bars represent the standard deviation (SD).
Next, experiments were performed to inhibit MMP9 and MMP2 in HaCaT cells using retinoic acid (CAS RN: 302-79-4) and nicotinamide (CAS RN: 98-92-0), which are known to be substances having anti-wrinkle effect. Briefly, HaCaT cells were made in contact with retinoic acid and nicotinamide in the same manner as in Experiment 4-1 except that retinoic acid and nicotinamide were used instead of Fraglide-1. Then, the total RNA was extracted, cDNA was prepared, and the quantitative PCR was carried out using the obtained cDNA.
In FIG. 12 and FIG. 13, the results obtained for each sample were shown as a relative value, with the mRNA expression level of MMP9 or MMP2 in the HaCaT cells incubated for 24 hours in DMEM medium containing neither retinoic acid nor nicotinamide (i.e., the non-treated HaCaT cells) set to 1. The results shown in FIG. 12 and FIG. 13 were the mean obtained from three independent experiments. The error bars represent the standard deviation (SD).

[6] = test system: xenobiotic responsive element (XRE); assay: Screening: inhibition of FICZ-triggered reporter protein expression in XRE-NLuc::HaCaT cells; assay type: cell-based, human; details: FICZ 5,000 nM, 24 hours
Experimental: First, in the same manner as in Experiment 1-2, XRE-NLuc::HaCaT cells were suspended in a DMEM medium at the density of 1×10^5 cell/mL, and 100 μL of the thus obtained suspension was added to each well of white 96-well plates (Thermo Fisher Scientific, MA, U.S.A.; Catalogue No.: 136102) so that a number of the cells in each well was 10,000 cells/well. In accordance with the conventional method, the cells were incubated for 24 hours at 37° C. and 5% CO2. Thereafter, the DMEM medium was removed, and 100 μL of a new DMEM medium containing […] of FICZ, which was confirmed to activate the expression of the reporter protein in Experiment 1-2, and a candidate substance at a predetermined concentration. Meanwhile, reference samples were also prepared by adding 100 μL of a DMEM medium containing 5,000 nM of FICZ but not containing candidate substances. In this experiment, 5-hydroxy-4-phenyl-2(5H)butenolide (hereinafter also referred to as “Fraglide-1” or “FG1”) and, as a positive control, cinnamaldehyde, which is known to have an effect of inhibiting a foreign body reaction in which a xenobiotic responsive element (XRE) is involved, were used as test substances. After incubation for 24 hours at 37° C. and 5% CO2, the expression level of the reporter protein (luminescence intensity) and the viable cell count were measured in accordance with the method described in Experiment 1-2, and the expression of the reporter protein per unit number of viable cells was obtained. The inhibition rate (Inhibition (%)) of the expression of the reporter protein exerted by each candidate substance was calculated in accordance with the following formula.
In the above formula, (Reporter Expression)FICZ indicates the expression of the reporter protein per unit number of viable cells obtained from the reference samples: i.e., the cells incubated in the medium containing 5,000 nM of FICZ but not containing candidate substances. Meanwhile, (Reporter Expression)FICZ+TEST SAMPLE indicates the expression of the reporter protein per unit number of viable cells obtained from the cells incubated in the medium containing 5,000 nM of FICZ and a candidate substance. The results shown in FIG. 6 were the mean obtained from three independent experiments. The error bars represent the standard error (SE).

in vitro = details: human
Experimental: as §1, §2

COC(=O)c1csc(C(=O)c2c[nH]c3ccccc23)n1 [ITE, 2-(1′H-indole-3′-carbonyl)-thiazole-4-carboxylic acid methyl ester]
CC50 (XRE-NLuc::HaCaT cells): > 100 µM
EC50 [1]: 1.3 µM
Present Experiment Maximum Effective concentration Max. Induction [1]: 25 µM
Literature Value Maximum Effective concentration Max. Induction [2]: 10** μM

NC(=O)c1cccnc1 [nicotinamide]
expression of MMP2 mRNA vs non-treated HaCaT cells [3]: decreased
expression level of TIMP-1 mRNA vs non-treated HaCaT cells (in words) [4]: increase of the expression level of TIMP-1 was not observed
expression of MMP9 mRNA vs non-treated HaCaT cells [5]: decreased expression of MMP9 was also observed

O=CC=Cc1ccccc1 [cinnamaldehyde]
Inhibition (%) of expression of the reporter protein triggered by FICZ ([6]; 12.5 μM test substance): 8%
Inhibition (%) of expression of the reporter protein triggered by FICZ ([6]; 25 μM test substance): 14%
Inhibition (%) of expression of the reporter protein triggered by FICZ ([6]; 50 μM test substance): 16%

OCc1c[nH]c2ccccc12 [I3C, indole-3-carbinol]
CC50 (XRE-NLuc::HaCaT cells): > 700 µM
EC50 [1]: 11 µM
Present Experiment Maximum Effective concentration Max. Induction [1]: 350 µM

O=C1Nc2ccccc2/C1=C1/Nc2ccccc2C1=O [Indirubin, indirubin]
CC50 at 24 h (in vitro): > 40 µM
EC50 ([1]; Homo sapiens): 0.006 µM
Present Experiment Maximum Effective concentration Max. Induction [1]: 0.25 µM
